Data taken from US8895695B2, “Template-fixed beta-hairpin peptidomimetics with CXCR4 antagonizing activity” (priority 2003, dated 2014).
Bridge positions count the residues as written; N and C are the ends. Square brackets hold non-standard residues; d marks the D form. Peptide text beside a SMILES is read from it. 2Nal = N[C@@H](Cc1ccc2ccccc2c1)C(=O)O; Cit = NC(=O)NCCC[C@H](N)C(=O)O

How the values were obtained:
[1] = tested on: human red blood cells (hRBC); experiment: Hemolysis; type: cell-based
Protocol: The peptides were tested for their hemolytic activity against human red blood cells (hRBC). Fresh hRBC were washed three times with phosphate buffered saline (PBS) by centrifugation for 10 min at 2000×g. Peptides at a concentration of 100 μM were incubated with 20% v/v hRBC for 1 hour at 37° C. The final erythrocyte concentration was approximately 0.9×10^9 cells per ml. A value of 0% resp. 100% cell lysis was determined by incubation of the hRBC in the presence of PBS alone and respectively 0.1% Triton X-100 in H2O. The samples were centrifuged and the supernatant was 20-fold diluted in PBS buffer and the optical density (OD) of the sample at […] was measured. The 100% lyses value (OD540H2O) gave an OD540 of approximately 1.3-1.8. Percent hemolysis was calculated as follows: (OD540peptide/OD540H2O)×100%.

in vitro = conditions: human
CXCR4 = CXCR4 (Homo sapiens, UniProt P61073); experiment: Ca2+-assay method 2 (Flexstation, SDF-1 induced calcium mobilization); type: cell-based; parameters: expressed in transfected cells; host or cells: mouse pre-B cell line 300-19; conditions: method 2 (Ex. 54-160), mouse pre-B cell line 300-19 with human CXCR4, 10 nM SDF-1; read-out: IC50 (nM) Ca^2+ assay
Sequence of CXCR4 (P61073 whole entry): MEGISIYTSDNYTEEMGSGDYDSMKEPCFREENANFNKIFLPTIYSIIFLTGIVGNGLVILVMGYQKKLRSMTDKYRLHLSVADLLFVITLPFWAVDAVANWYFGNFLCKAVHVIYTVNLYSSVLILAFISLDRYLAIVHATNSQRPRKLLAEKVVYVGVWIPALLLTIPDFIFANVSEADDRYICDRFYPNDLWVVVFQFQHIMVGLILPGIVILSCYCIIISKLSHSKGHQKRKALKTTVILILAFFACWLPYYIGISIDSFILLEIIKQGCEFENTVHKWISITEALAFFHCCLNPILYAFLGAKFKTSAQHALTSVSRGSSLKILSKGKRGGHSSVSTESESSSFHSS
Protocol: 2.2. Ca^2+-Assay: CXCR4-Antagonizing Activity of the Peptides.
The cells were batch loaded with the Calcium 3 Assay kit (Molecular Devices) in assay buffer (Hanks Balanced salt solution, HBSS, 20 mM HEPES, pH 7.4, 0.1% BSA) for 1 h at room temperature and then 200,000 labeled cells were dispensed into black 96 well assays plates (Costar No. 3603). A 20-fold concentrated solution of peptide in assay buffer was added to the cells and the whole plate was centrifuged to settle the cells to the bottom of the wells. Calcium mobilization induced by 10 nM stromal-derived factor-1 (SDF-1) was measured in the Flexstation 384 (excitation, 485 nM; emission, 525 nM) for 90 seconds. A maximal change in fluorescence response above baseline was used to calculate antagonist activity. The data for dose response curves (antagonist concentration versus % maximum response) were fitted to a four parameter logistic equation using SoftmaxPro 4.6 (Molecular Devices), from which IC50% values were calculated.
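For GI50 in this document: MTT reduction read as absorbance at 595 nm, blank-corrected and expressed as percent growth relative to the time-zero cell reading, triplicate wells per concentration.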

Row | SMILES | Hemolysis at 100 μM [1] | GI50 at 48 h (in vitro) | IC50 (CXCR4)
1 | N=C(N)NCCC[C@@H]1NC(=O)[C@@H]2CSSC[C@H](NC(=O)[C@H](Cc3ccc4ccccc4c3)NC(=O)[C@H](CCCNC(=N)N)NC(=O)[C@H](Cc3ccc(O)cc3)NC(=O)[C@H]3CCCN3C(=O)CNC1=O)C(=O)N[C@@H](Cc1ccc(O)cc1)C(=O)N[C@@H](CCC(N)=O)C(=O)N[C@@H](CCCCN)C(=O)N1CCC[C@@H]1C(=O)N1CCC[C@H]1C(=O)N[C@@H](Cc1ccc(O)cc1)C(=O)N[C@@H](CCCNC(=N)N)C(=O)N[C@@H](CCCNC(N)=O)C(=O)N2 [Ex. 54] (cyclo(YR[Cit]CRG[dP]YR[2Nal]CYQK[dP]P); disulfide 4-11) | 0% | 54 µM | 6.9 nM
2 | N=C(N)NCCC[C@@H]1NC(=O)[C@@H]2CSSC[C@H](NC(=O)[C@H](Cc3ccc4ccccc4c3)NC(=O)[C@H](CCCNC(=N)N)NC(=O)[C@H](Cc3c[nH]c4ccccc34)NC(=O)[C@H]3CCCN3C(=O)CNC1=O)C(=O)N[C@@H](Cc1ccc(O)cc1)C(=O)N[C@@H](CCC(N)=O)C(=O)N[C@@H](CCCCN)C(=O)N1CCC[C@@H]1C(=O)N1CCC[C@H]1C(=O)N[C@@H](Cc1ccc(O)cc1)C(=O)N[C@@H](CCCNC(=N)N)C(=O)N[C@@H](CCCNC(N)=O)C(=O)N2 [Ex. 55] (cyclo(YR[Cit]CRG[dP]WR[2Nal]CYQK[dP]P); disulfide 4-11) | 0.1% | 43 µM | 6.3 nM
3 | N=C(N)NCCC[C@@H]1NC(=O)[C@@H]2CSSC[C@H](NC(=O)[C@H](Cc3ccc4ccccc4c3)NC(=O)[C@H](CCCNC(=N)N)NC(=O)[C@H](CCCNC(=N)N)NC(=O)[C@H]3CCCN3C(=O)CNC1=O)C(=O)N[C@@H](Cc1ccc(O)cc1)C(=O)N[C@@H](Cc1c[nH]cn1)C(=O)N[C@@H](CCCCN)C(=O)N1CCC[C@@H]1C(=O)N1CCC[C@H]1C(=O)N[C@@H](Cc1ccc(O)cc1)C(=O)N[C@@H](CCCNC(=N)N)C(=O)N[C@@H](CCCNC(N)=O)C(=O)N2 [Ex. 58] (cyclo(YR[Cit]CRG[dP]RR[2Nal]CYHK[dP]P); disulfide 4-11) | 0% | 18 µM | 10.5 nM
4 | N=C(N)NCCC[C@@H]1NC(=O)[C@@H]2CSSC[C@H](NC(=O)[C@H](Cc3ccc4ccccc4c3)NC(=O)[C@H](CCCNC(=N)N)NC(=O)[C@H](CCCNC(=N)N)NC(=O)[C@H]3CCCN3C(=O)CNC1=O)C(=O)N[C@@H](Cc1ccc(O)cc1)C(=O)N[C@@H](Cc1ccc(O)cc1)C(=O)N[C@@H](CCCCN)C(=O)N1CCC[C@@H]1C(=O)N1CCC[C@H]1C(=O)N[C@@H](Cc1ccc(O)cc1)C(=O)N[C@@H](CCCNC(=N)N)C(=O)N[C@@H](CCCNC(N)=O)C(=O)N2 [Ex. 59] (cyclo(YR[Cit]CRG[dP]RR[2Nal]CYYK[dP]P); disulfide 4-11) | 0.1% | 33 µM | 7.8 nM
5 | N=C(N)NCCC[C@@H]1NC(=O)[C@@H]2CSSC[C@H](NC(=O)[C@H](Cc3ccc4ccccc4c3)NC(=O)[C@H](CCCNC(=N)N)NC(=O)[C@H](CCCNC(=N)N)NC(=O)[C@H]3CCCN3C(=O)CNC1=O)C(=O)N[C@@H](Cc1ccc(O)cc1)C(=O)N[C@@H](CCC(N)=O)C(=O)N[C@@H](CCCCN)C(=O)N1CCC[C@@H]1C(=O)N1CCC[C@H]1C(=O)N[C@@H](CCC(N)=O)C(=O)N[C@@H](CCCNC(=N)N)C(=O)N[C@@H](CCCNC(N)=O)C(=O)N2 [Ex. 62] (cyclo(QR[Cit]CRG[dP]RR[2Nal]CYQK[dP]P); disulfide 4-11) | 0.1% | 65 µM | 1.8 nM
6 | N=C(N)NCCC[C@@H]1NC(=O)[C@@H]2CSSC[C@H](NC(=O)[C@H](Cc3ccc4ccccc4c3)NC(=O)[C@H](CCCNC(=N)N)NC(=O)[C@H](CCCNC(=N)N)NC(=O)[C@H]3CCCN3C(=O)CNC1=O)C(=O)N[C@@H](Cc1ccc(O)cc1)C(=O)N[C@@H](CCC(N)=O)C(=O)N[C@@H](CCCCN)C(=O)N1CCC[C@@H]1C(=O)N1CCC[C@H]1C(=O)N[C@@H](Cc1c[nH]cn1)C(=O)N[C@@H](CCCNC(=N)N)C(=O)N[C@@H](CCCNC(N)=O)C(=O)N2 [Ex. 64] (cyclo(HR[Cit]CRG[dP]RR[2Nal]CYQK[dP]P); disulfide 4-11) | 0.3% | 66 µM | 3.3 nM
7 | CC[C@H](C)[C@@H]1NC(=O)[C@@H]2CCCN2C(=O)[C@H]2CCCN2C(=O)[C@H](CCCCN)NC(=O)[C@H](CCC(N)=O)NC(=O)[C@H](Cc2ccc(O)cc2)NC(=O)[C@@H]2CSSC[C@H](NC(=O)[C@H](CCCNC(N)=O)NC(=O)[C@H](CCCNC(=N)N)NC1=O)C(=O)N[C@@H](CCCNC(=N)N)C(=O)NCC(=O)N1CCC[C@@H]1C(=O)N[C@@H](CCCNC(=N)N)C(=O)N[C@@H](CCCNC(=N)N)C(=O)N[C@@H](Cc1ccc3ccccc3c1)C(=O)N2 [Ex. 65] (cyclo(IR[Cit]CRG[dP]RR[2Nal]CYQK[dP]P); disulfide 4-11) | 0.2% | 65 µM | 3.9 nM
8 | N=C(N)NCCC[C@@H]1NC(=O)[C@@H]2CSSC[C@H](NC(=O)[C@H](Cc3ccc4ccccc4c3)NC(=O)[C@H](CCCNC(=N)N)NC(=O)[C@H](CCCNC(=N)N)NC(=O)[C@H]3CCCN3C(=O)CNC1=O)C(=O)N[C@@H](Cc1ccc(O)cc1)C(=O)N[C@@H](CCC(N)=O)C(=O)N[C@@H](CCCCN)C(=O)N1CCC[C@@H]1C(=O)N1CCC[C@H]1C(=O)N[C@@H](Cc1c[nH]c3ccccc13)C(=O)N[C@@H](CCCNC(=N)N)C(=O)N[C@@H](CCCNC(N)=O)C(=O)N2 [Ex. 66] (cyclo(WR[Cit]CRG[dP]RR[2Nal]CYQK[dP]P); disulfide 4-11) | 0% | 46 µM | 3.8 nM
9 | C[C@@H](O)[C@@H]1NC(=O)[C@@H]2CCCN2C(=O)[C@H]2CCCN2C(=O)[C@H](CCCCN)NC(=O)[C@H](CCC(N)=O)NC(=O)[C@H](Cc2ccc(O)cc2)NC(=O)[C@@H]2CSSC[C@H](NC(=O)[C@H](CCCNC(N)=O)NC(=O)[C@H](CCCNC(=N)N)NC1=O)C(=O)N[C@@H](CCCNC(=N)N)C(=O)NCC(=O)N1CCC[C@@H]1C(=O)N[C@@H](CCCNC(=N)N)C(=O)N[C@@H](CCCNC(=N)N)C(=O)N[C@@H](Cc1ccc3ccccc3c1)C(=O)N2 [Ex. 67] (cyclo(TR[Cit]CRG[dP]RR[2Nal]CYQK[dP]P); disulfide 4-11) | 0.2% | 49 µM | 2.4 nM
10 | N=C(N)NCCC[C@@H]1NC(=O)[C@@H]2CSSC[C@H](NC(=O)[C@H](Cc3ccc4ccccc4c3)NC(=O)[C@H](CCCNC(=N)N)NC(=O)[C@H](CCCNC(=N)N)NC(=O)[C@H]3CCCN3C(=O)CNC1=O)C(=O)N[C@@H](Cc1ccc(O)cc1)C(=O)N[C@@H](CCC(N)=O)C(=O)N[C@@H](CCCCN)C(=O)N1CCC[C@@H]1C(=O)N1CCC[C@H]1C(=O)N[C@@H](Cc1ccc(O)cc1)C(=O)N[C@@H](CCCNC(=N)N)C(=O)N[C@@H](CCCNC(=N)N)C(=O)N2 [Ex. 69] (cyclo(YRRCRG[dP]RR[2Nal]CYQK[dP]P); disulfide 4-11) | 0.1% | 49 µM | 1.8 nM
11 | N=C(N)NCCC[C@@H]1NC(=O)[C@@H]2CSSC[C@H](NC(=O)[C@H](Cc3ccc4ccccc4c3)NC(=O)[C@H](CCCNC(=N)N)NC(=O)[C@H](CCCNC(=N)N)NC(=O)[C@H]3CCCN3C(=O)CNC1=O)C(=O)N[C@@H](Cc1ccc(O)cc1)C(=O)N[C@@H](CCC(N)=O)C(=O)N[C@@H](CCCCN)C(=O)N1CCC[C@@H]1C(=O)N1CCC[C@H]1C(=O)N[C@@H](Cc1ccc(O)cc1)C(=O)N[C@@H](CCCNC(=N)N)C(=O)N[C@@H](Cc1c[nH]cn1)C(=O)N2 [Ex. 70] (cyclo(YRHCRG[dP]RR[2Nal]CYQK[dP]P); disulfide 4-11) | 0.2% | 40 µM | 19.5 nM
12 | CC[C@H](C)[C@@H]1NC(=O)[C@H](CCCNC(=N)N)NC(=O)[C@H](Cc2ccc(O)cc2)NC(=O)[C@@H]2CCCN2C(=O)[C@H]2CCCN2C(=O)[C@H](CCCCN)NC(=O)[C@H](CCC(N)=O)NC(=O)[C@H](Cc2ccc(O)cc2)NC(=O)[C@@H]2CSSC[C@H](NC1=O)C(=O)N[C@@H](CCCNC(=N)N)C(=O)NCC(=O)N1CCC[C@@H]1C(=O)N[C@@H](CCCNC(=N)N)C(=O)N[C@@H](CCCNC(=N)N)C(=O)N[C@@H](Cc1ccc3ccccc3c1)C(=O)N2 [Ex. 71] (cyclo(YRICRG[dP]RR[2Nal]CYQK[dP]P); disulfide 4-11) | 0.1% | 34 µM | 2.7 nM
13 | N=C(N)NCCC[C@@H]1NC(=O)[C@@H]2CSSC[C@H](NC(=O)[C@H](Cc3ccc4ccccc4c3)NC(=O)[C@H](CCCNC(=N)N)NC(=O)[C@H](CCCNC(=N)N)NC(=O)[C@H]3CCCN3C(=O)CNC1=O)C(=O)N[C@@H](Cc1ccc(O)cc1)C(=O)N[C@@H](CCC(N)=O)C(=O)N[C@@H](CCCCN)C(=O)N1CCC[C@@H]1C(=O)N1CCC[C@H]1C(=O)N[C@@H](Cc1ccc(O)cc1)C(=O)N[C@@H](CCCNC(=N)N)C(=O)N[C@@H](Cc1ccc(O)cc1)C(=O)N2 [Ex. 72] (cyclo(YRYCRG[dP]RR[2Nal]CYQK[dP]P); disulfide 4-11) | 0.5% | 36 µM | 3.9 nM
